Reference: patent US20170354655A1, “TLR INHIBITOR AND BRUTON'S TYROSINE KINASE INHIBITOR COMBINATIONS” (Pharmacyclics LLC, priority 2014, published 2017)

Legend:
Assay type in all cases: cell-based
TMD8 cells = test: Combined drug treatment, CellTiter-Glo cell viability assay in TMD8 cell line; conditions: for luminescent signal (CellTiter-Glo): test ODN 1 μM or chloroquine 10 μM, 3 days; for average CI value for the ibrutinib and chloroquine combination: CalcuSyn; for synergy score for the ibrutinib and chloroquine combination: Chalice Analyzer
Procedure: 200 μl of TMD8 wt cells (1.0×10^4 cells) at 5.0×10^4 cells/ml was plated into each well of a 96-well plate. The cells were grown in RPMI-10P medium.
The TLR9 antagonists used for this experiment included ODN 4084-F, ODN INH-1, ODN INH-18, and ODN TTAGGG. […] The TLR9 agonists used for this experiment included ODN 2006, ODN 2216, and ODN 2395. The TLR9 agonists were used to stimulate TLR signaling. Chloroquine is a non-specific TLR antagonist.
The stock solutions for the TLR9 antagonists and the TLR9 agonists were each prepared at 500 μM concentration. The stock solution for chloroquine diphosphate was prepared at 50 mM concentration.
The 96-W plate was then incubated for 3 days. Cell viability was examined using a CellTiter-Glo® assay.
(§1) A 40 μL aliquot of CellTiter-Glo® reagent was added directly into each well of the 96-W plate. The plate was then shaken on a Shaker (Labsystem Wellmix) at speed 5 for 10-20 min at room temperature. Next, about 100 μL of the mixed medium was transferred to a white, non-transparent, flat bottom 96-W plate for assaying. A Flexstation 3 luminometer was used for detecting and measuring the luminescent signals. Measurements were taken at room temperature.
CellTiter-Glo® reagents were thawed prior to use. Cells pre-plated onto a second 96-W plate and incubated at room temperature for 30 minutes were used for calibration purposes.
The luminescent measurements were subsequently processed and analyzed using CalcuSyn (CI) and Chalice Analyzer (synergy score). CalcuSyn performs the multiple drug dose-effect calculations using the Median Effect methods described by T-C Chou and P. Talalay in “Analysis of combined drug effects: a new look at a very old problem,” Trends Pharmacol. Sci. 4:450-454 (1983). In general, the resulting combination index (CI) obtained from the Chou-Talalay method defines quantitatively for additive effect (CI=1), synergism (CI<1), and antagonism (CI>1) in drug combinations. […] Biotechnol. 27(7):659-666 (2009).
(§2) Cell growth effects were determined by the CellTiter-Glo® luminescent cell viability assay (Promega). The combination index (C.I.), a drug interactivity measurement was calculated with Calcusyn. Synergy scores were calculated by the Chalice Analyzer (Horizon CombinatoRx). ApoDETECT Annexin V-FITC Kit was used to detect apoptotic cell population. LC3B antibody (Cell Signaling) was used for Western blot analysis to detect autophagic marker LC3B-II. HBL-1 cells were plated in MethoCult (StemCell Technologies) and number of colonies was counted 7 days after drug treatment to determine the effect on colony formation. TLR related gene expression was determined by using RT^2 Profiler PCR Array (Qiagen).

OCI-LY10 cells = test: Combined drug treatment, CellTiter-Glo cell viability assay in OCI-LY10 cell line; conditions: for synergy score for the chloroquine/ibrutinib combination: LY10 cells
Procedure: as §1
(§3) The luminescent measurements were subsequently processed and analyzed using CalcuSyn (CI) and Chalice Analyzer (synergy score). […] In general, the resulting combination index (CI) obtained from the Chou-Talalay method defines quantitatively for additive effect (CI=1), synergism (CI<1), and antagonism (CI>1) in drug combinations. […] Biotechnol.
as §2

HBL1 cells = test: Combined drug treatment, CellTiter-Glo cell viability assay in HBL1 cell line
Procedure: as §1, §3, §2

CCN(CC)CCCC(C)Nc1ccnc2cc(Cl)ccc12 (stereo not shown) [Chloroquine, chloroquine]
luminescent signal (CellTiter-Glo) (TMD8 cells; Control (no TLR9 agonist), ibrutinib 0 nM): 275515
luminescent signal (CellTiter-Glo) (TMD8 cells; Control (no TLR9 agonist), ibrutinib 0.0003 nM): 264724
luminescent signal (CellTiter-Glo) (TMD8 cells; Control (no TLR9 agonist), ibrutinib 0.0013 nM): 265058
luminescent signal (CellTiter-Glo) (TMD8 cells; Control (no TLR9 agonist), ibrutinib 0.0064 nM): 271348
luminescent signal (CellTiter-Glo) (TMD8 cells; Control (no TLR9 agonist), ibrutinib 0.032 nM): 276679
luminescent signal (CellTiter-Glo) (TMD8 cells; Control (no TLR9 agonist), ibrutinib 0.16 nM): 250469
luminescent signal (CellTiter-Glo) (TMD8 cells; Control (no TLR9 agonist), ibrutinib 0.8 nM): 177291
luminescent signal (CellTiter-Glo) (TMD8 cells; Control (no TLR9 agonist), ibrutinib 4 nM): 86168
luminescent signal (CellTiter-Glo) (TMD8 cells; Control (no TLR9 agonist), ibrutinib 20 nM): 78916
luminescent signal (CellTiter-Glo) (TMD8 cells; Control (no TLR9 agonist), ibrutinib 100 nM): 61700
luminescent signal (CellTiter-Glo) (TMD8 cells; TLR9 agonist ODN 2006 1 μM, ibrutinib 0 nM): 275829
luminescent signal (CellTiter-Glo) (TMD8 cells; TLR9 agonist ODN 2006 1 μM, ibrutinib 0.0003 nM): 258871
luminescent signal (CellTiter-Glo) (TMD8 cells; TLR9 agonist ODN 2006 1 μM, ibrutinib 0.0013 nM): 250534
luminescent signal (CellTiter-Glo) (TMD8 cells; TLR9 agonist ODN 2006 1 μM, ibrutinib 0.0064 nM): 249082
luminescent signal (CellTiter-Glo) (TMD8 cells; TLR9 agonist ODN 2006 1 μM, ibrutinib 0.032 nM): 239360
luminescent signal (CellTiter-Glo) (TMD8 cells; TLR9 agonist ODN 2006 1 μM, ibrutinib 0.16 nM): 247058
luminescent signal (CellTiter-Glo) (TMD8 cells; TLR9 agonist ODN 2006 1 μM, ibrutinib 0.8 nM): 138546
luminescent signal (CellTiter-Glo) (TMD8 cells; TLR9 agonist ODN 2006 1 μM, ibrutinib 4 nM): 79843
luminescent signal (CellTiter-Glo) (TMD8 cells; TLR9 agonist ODN 2006 1 μM, ibrutinib 20 nM): 67694
luminescent signal (CellTiter-Glo) (TMD8 cells; TLR9 agonist ODN 2006 1 μM, ibrutinib 100 nM): 62288
luminescent signal (CellTiter-Glo) (TMD8 cells; TLR9 agonist ODN 2216 1 μM, ibrutinib 0 nM): 203015
luminescent signal (CellTiter-Glo) (TMD8 cells; TLR9 agonist ODN 2216 1 μM, ibrutinib 0.0003 nM): 193567
luminescent signal (CellTiter-Glo) (TMD8 cells; TLR9 agonist ODN 2216 1 μM, ibrutinib 0.0013 nM): 229545
luminescent signal (CellTiter-Glo) (TMD8 cells; TLR9 agonist ODN 2216 1 μM, ibrutinib 0.0064 nM): 200219
luminescent signal (CellTiter-Glo) (TMD8 cells; TLR9 agonist ODN 2216 1 μM, ibrutinib 0.032 nM): 199458
luminescent signal (CellTiter-Glo) (TMD8 cells; TLR9 agonist ODN 2216 1 μM, ibrutinib 0.16 nM): 207276
luminescent signal (CellTiter-Glo) (TMD8 cells; TLR9 agonist ODN 2216 1 μM, ibrutinib 0.8 nM): 115898
luminescent signal (CellTiter-Glo) (TMD8 cells; TLR9 agonist ODN 2216 1 μM, ibrutinib 4 nM): 65959
luminescent signal (CellTiter-Glo) (TMD8 cells; TLR9 agonist ODN 2216 1 μM, ibrutinib 20 nM): 48838
luminescent signal (CellTiter-Glo) (TMD8 cells; TLR9 agonist ODN 2216 1 μM, ibrutinib 100 nM): 44662
luminescent signal (CellTiter-Glo) (TMD8 cells; TLR9 agonist ODN 2395 1 μM, ibrutinib 0 nM): 170080
luminescent signal (CellTiter-Glo) (TMD8 cells; TLR9 agonist ODN 2395 1 μM, ibrutinib 0.0003 nM): 168027
luminescent signal (CellTiter-Glo) (TMD8 cells; TLR9 agonist ODN 2395 1 μM, ibrutinib 0.0013 nM): 177301
luminescent signal (CellTiter-Glo) (TMD8 cells; TLR9 agonist ODN 2395 1 μM, ibrutinib 0.0064 nM): 170957
luminescent signal (CellTiter-Glo) (TMD8 cells; TLR9 agonist ODN 2395 1 μM, ibrutinib 0.032 nM): 167073
luminescent signal (CellTiter-Glo) (TMD8 cells; TLR9 agonist ODN 2395 1 μM, ibrutinib 0.16 nM): 156507
luminescent signal (CellTiter-Glo) (TMD8 cells; TLR9 agonist ODN 2395 1 μM, ibrutinib 0.8 nM): 100658
luminescent signal (CellTiter-Glo) (TMD8 cells; TLR9 agonist ODN 2395 1 μM, ibrutinib 4 nM): 69482
luminescent signal (CellTiter-Glo) (TMD8 cells; TLR9 agonist ODN 2395 1 μM, ibrutinib 20 nM): 59032
luminescent signal (CellTiter-Glo) (TMD8 cells; TLR9 agonist ODN 2395 1 μM, ibrutinib 100 nM): 55950
synergy with ibrutinib (in words) (TMD8 cells; TMD8 cells, whether or not TLR agonist was present): Synergy was observed
average CI value for the ibrutinib and chloroquine combination (TMD8 cells; TMD8 cells, with agonists): 0.11
synergy score for the ibrutinib and chloroquine combination (TMD8 cells; TMD8 cells, with agonists): 4.22
average CI value for the ibrutinib and chloroquine combination (TMD8 cells; TMD8 cells, without agonists): 0.40
synergy score for the ibrutinib and chloroquine combination (TMD8 cells; TMD8 cells, without agonists): 3.48
CI value for the chloroquine/ibrutinib combination (OCI-LY10 cells; LY10, with agonist ODN2216): 0.59
CI value for the chloroquine/ibrutinib combination (OCI-LY10 cells; LY10, without agonist ODN2216): 0.50
synergy score for the chloroquine/ibrutinib combination (OCI-LY10 cells; with agonist ODN2216): 2.63
synergy score for the chloroquine/ibrutinib combination (OCI-LY10 cells; without agonist ODN2216): 2.44
synergy with ibrutinib (in words) (OCI-LY10 cells; OCI-LY10 cells): Synergy was observed
synergy with ibrutinib (in words) (HBL1 cells): Synergy was observed
CI value for the chloroquine/ibrutinib combination (HBL1 cells; with agonist ODN2216): 0.35
synergy score for the chloroquine/ibrutinib combination (HBL1 cells; with agonist ODN2216): 3.5
CI value for the chloroquine/ibrutinib combination (HBL1 cells; without agonist ODN2216): 0.56
synergy score for the chloroquine/ibrutinib combination (HBL1 cells; without agonist ODN2216): 3.03
